Reference: patent publication US20230114728A1 (Venatorx Pharmaceuticals, Inc., priority 2019, published 2023)
Converted amounts (≈) assume the structure as drawn.

Experiments:
N. gonorrhoeae WHO Q = assay: Liquid broth MIC in Fastidious broth; assay type: cell-based; details: Neisseria gonorrhoeae, read-out: Minimum Inhibitory Concentration, N. gonorrhoeae WHO Q
Outline: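 Mosaic-PBP2 strains grown 24 h on chocolate agar (36 °C, 5% CO2), then direct-suspended in saline and OD600-adjusted. Twofold compound dilutions in Fastidious broth inoculated at 5×10^5 CFU/mL and incubated ~24 h at 36 °C, 5% CO2. MIC read visually as lowest concentration with <10% growth versus full-growth wells.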

N. gonorrhoeae PBP2 = target: T1, N. gonorrhoeae PBP2 (Neisseria gonorrhoeae, UniProt P08149); assay: Bocillin-FL fluorescence polarization competition binding assay, N. gonorrhoeae PBP2; details: fluorescence polarization competition binding assay using Bocillin-FL; read-out: N. gonorrhoeae PBP2 Potency
T1 construct: made in house
From the text: Example I: Experimental Method for Penicillin-Binding Protein Binding Assays with Bocillin-FL Via Fluorescence Polarization
To determine the ability of boronic acid-based test PBP inhibitors to bind Penicillin Binding Proteins (PBPs), Bocillin-FL (fluorescently-labeled penicillin V; ThermoFisher Scientific) was used in a fluorescence polarization (FP) competition binding assay to assess inhibitor binding to PBP2, PBP3 or PBP4 from Escherichia coli (K12), PBP3 from Pseudomonas aeruginosa (PA01), PBP1a, PBP2 and PBP3 from Acinetobacter baumannii (ATCC 19606), and PBP2 from Neiserria gonorrheae (FA19). PBPs were cloned and purified as described previously (E. coli PBPs, King, D. T, et al., ACS Infectious Diseases 2015, 1, 175-184; P. aeruginosa PBP3, Han et. al., PNAS 2010, 107 (51), 22002-22007; A. baumannii PBPs, Penwell et. al., Antimicrob. Agents Chemother. 2015, 59 (3), 1680-1689; N. gonorrhoeae PBP2, Singh et. al., J Biol. Chem. 2019, 294 (38), 14020-14032). To establish assay conditions for competition binding, enzyme titration/saturation binding experiments were initially performed. Bocillin-FL was prepared at 0.2 μM in a buffer comprised of 50 mM Hepes (pH 8.0), 300 mM NaCl and 5% (v/v) glycerol for reactions with E. coli, P. aeruginosa and N. gonorrhoeae PBPs, and 25 mM Tris (pH 8.0), 200 mM NaCl and 10% (v/v) glycerol and 0.005% (v/v) Tween 20 for reactions with A. baumannii PBPs. Saturation binding was performed by mixing 40 μl of PBP solutions ranging in concentrations from 0-24 μM with 40 μl of the 0.2 μM Bocillin-FL solution, in individual wells of a black 384-well microplate. FP was measured immediately upon mixing (Excitation, 490 nm; Emission, 520 nm; g-factor, 0.96), using a Cytation3 (BioTek) microplate reader and measured continuously for up to 120 minutes. […] The competition binding assay (80 μl final volume) was validated using beta-lactams and PBPs at final concentrations of: 1.5 μM, E. coli PBP3; 0.75 μM, P. aeruginosa PBP3; 1 μM A. baumannii PBP1a; 2.5 μM A. baumannii PBP2; 0.2 μM A. baumannii PBP3; and […] N. gonorrhoeae PBP2. Bocillin-FL was at 0.1 μM (0.05 μM with A. baumannii PBP1a) and beta-lactam concentrations ranged from 0-1000 μM. […] Bocillin-FL was added and the FP immediately measured for up to 60 minutes (90 minutes for E. coli PBP2). […] The beta-lactam potency was reported as the concentration of beta-lactam required to reduce the amount of PBP bound-Bocillin-FL by 50% (EC50). […] Binding assays for boronic acid PBP inhibitors were performed in an identical fashion for the respective PBPs

[1] = Bocillin-FL fluorescence polarization competition binding assay, A. baumannii PBP3; details: fluorescence polarization competition binding assay using Bocillin-FL; column 3; read-out: 4. baumannii PBP1a Potency
Outline: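 Fluorescence polarization (ex 490/em 520 nm) competition of inhibitors against Bocillin-FL at 0.1 μM, read up to 60 min. Final PBP levels: E. coli PBP3 1.5 μM; A. baumannii PBP2 2.5 μM, PBP3 0.2 μM in Tris pH 8.0/NaCl/glycerol/Tween 20; N. gonorrhoeae PBP2 […] in Hepes pH 8.0/NaCl/glycerol. EC50 = concentration halving PBP-bound Bocillin-FL.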

T1 sequence (P08149 whole entry): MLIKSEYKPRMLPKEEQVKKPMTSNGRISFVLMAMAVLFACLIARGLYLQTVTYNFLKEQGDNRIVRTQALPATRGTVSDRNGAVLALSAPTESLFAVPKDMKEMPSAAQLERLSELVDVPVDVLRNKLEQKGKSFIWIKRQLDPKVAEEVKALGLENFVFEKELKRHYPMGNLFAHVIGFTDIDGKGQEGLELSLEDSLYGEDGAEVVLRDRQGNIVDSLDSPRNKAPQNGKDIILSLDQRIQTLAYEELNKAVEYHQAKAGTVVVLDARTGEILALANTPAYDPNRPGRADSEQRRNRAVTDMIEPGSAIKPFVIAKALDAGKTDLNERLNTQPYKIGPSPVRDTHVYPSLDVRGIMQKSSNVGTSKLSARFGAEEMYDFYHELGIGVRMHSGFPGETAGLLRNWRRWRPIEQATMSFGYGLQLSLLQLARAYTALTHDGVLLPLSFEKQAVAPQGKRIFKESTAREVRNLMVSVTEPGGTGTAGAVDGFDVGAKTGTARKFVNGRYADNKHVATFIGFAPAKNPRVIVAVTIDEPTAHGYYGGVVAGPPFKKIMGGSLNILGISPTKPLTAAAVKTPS

Row | Compound | MIC (N. gonorrhoeae WHO Q) | EC50 (N. gonorrhoeae PBP2) | EC50 [1]
1 | NCCN1CCN(C(=O)NC(C(=O)N[C@H]2Cc3cccc(C(=O)O)c3OB2O)c2c(F)cc(O)cc2Cl)C(=O)C1=O (stereo partly drawn) [Example 94, (3R)-3-(2-(4-(2-aminoethyl)-2,3-dioxopiperazine-1-carboxamido)-2-(2-chloro-6-fluoro-4-hydroxyphenyl)acetamido)-2-hydroxy-3,4-dihydro-2H-benzo[e][1,2]oxaborinine-8-carboxylic acid] | > 64 µg/mL | < 10 µM | 
2 | CCN1CCN(C(=O)NC(C(=O)N[C@H]2Cc3ccc(F)c(C(=O)O)c3OB2O)c2c(F)cc(O)c(O)c2F)C(=O)C1=O (stereo partly drawn) [Example 36, (3R)-3-(2-(2,6-difluoro-3,4-dihydroxyphenyl)-2-(4-ethyl-2,3-dioxopiperazine-1-carboxamido)acetamido)-7-fluoro-2-hydroxy-3,4-dihydro-2H-benzo[e][1,2]oxaborinine-8-carboxylic acid] |  |  | 10 to 30 µM
3 | O=C(O)c1c(F)ccc2c1OB(O)[C@@H](NC(=O)C(NC(=O)N1CCN(CCBr)C(=O)C1=O)c1c(F)cc(O)c(O)c1F)C2 (stereo partly drawn) [Example 38, (3R)-3-(2-(4-(2-bromoethyl)-2,3-dioxopiperazine-1-carboxamido)-2-(2,6-difluoro-3,4-dihydroxyphenyl)acetamido)-7-fluoro-2-hydroxy-3,4-dihydro-2H-benzo[e][1,2]oxaborinine-8-carboxylic acid] |  |  | 10 to 30 µM
4 | CCN1CCN(C(=O)N[C@@H](C(=O)N[C@H]2Cc3cccc(C(=O)O)c3OB2O)c2cc(Cl)c(O)cc2Cl)C(=O)C1=O (single isomer, unassigned) [Example 91] | 16 to 32 µg/mL (≈ 27 to 53.9 µM) | < 10 µM | 
5 | CCN1CCN(C(=O)NC(C(=O)N[C@H]2Cc3cccc(C(=O)O)c3OB2O)c2ccc(C(N)=O)c(O)c2)C(=O)C1=O (stereo partly drawn) [Example 45, (3R)-3-(2-(4-carbamoyl-3-hydroxyphenyl)-2-(4-ethyl-2,3-dioxopiperazine-1-carboxamido)acetamido)-2-hydroxy-3,4-dihydro-2H-benzo[e][1,2]oxaborinine-8-carboxylic acid] | 16 to 32 µg/mL (≈ 28.2 to 56.4 µM) | < 10 µM | 
6 | CCN1CCN(C(=O)N[C@H](C(=O)N[C@H]2Cc3cccc(C(=O)O)c3OB2O)c2cc(Cl)c(O)cc2Cl)C(=O)C1=O (single isomer, unassigned) [Example 92] | > 64 µg/mL | < 10 µM | 
7 | CS(=O)(=O)N1CCN(C(=O)N[C@@H](C(=O)N[C@H]2Cc3ccc(F)c(C(=O)O)c3OB2O)c2c(F)cc(O)c(O)c2Cl)C1=O (single isomer, unassigned) [Example 35] |  |  | 30 to 100 µM
8 | CCN1CCN(C(=O)N[C@@H](C(=O)N[C@H]2Cc3cccc(C(=O)O)c3OB2O)c2cc(O)cc(O)c2)C(=O)C1=O (single isomer, unassigned) [Example 82] | 4 to 8 µg/mL (≈ 7.4 to 14.8 µM) | < 10 µM | 
9 | NCCN1CCN(C(=O)N[C@H](C(=O)N[C@H]2Cc3cccc(C(=O)O)c3OB2O)c2ccc(C(=O)O)cc2)C(=O)C1=O (single isomer, unassigned) [Example 83] | > 64 µg/mL | < 10 µM | 
10 | O=C(Nc1ccc(O)c(O)c1Cl)NC(C(=O)N[C@H]1Cc2ccc(F)c(C(=O)O)c2OB1O)c1ncc(O)cc1F (stereo partly drawn) [Example 9, (3R)-3-(2-(3-(2-chloro-3,4-dihydroxyphenyl)ureido)-2-(3-fluoro-5-hydroxypyridin-2-yl)acetamido)-7-fluoro-2-hydroxy-3,4-dihydro-2H-benzo[e][1,2]oxaborinine-8-carboxylic acid] |  |  | 30 to 100 µM
11 | O=C(O)c1ccc(C(NC(=O)c2ccc(O)c(O)c2Cl)C(=O)N[C@H]2Cc3cccc(C(=O)O)c3OB2O)cc1F (stereo partly drawn) [Example 7, (3R)-3-(2-(4-carboxy-3-fluorophenyl)-2-(2-chloro-3,4-dihydroxybenzamido)acetamido)-2-hydroxy-3,4-dihydro-2H-benzo[e][1,2]oxaborinine-8-carboxylic acid] |  |  | > 100 µM
12 | CCN1CCN(C(=O)NC(C(=O)N[C@H]2Cc3cccc(C(=O)O)c3OB2O)c2cccc(N)c2)C(=O)C1=O (stereo partly drawn) [Example 72, (3R)-3-(2-(3-aminophenyl)-2-(4-ethyl-2,3-dioxopiperazine-1-carboxamido)acetamido)-2-hydroxy-3,4-dihydro-2H-benzo[e][1,2]oxaborinine-8-carboxylic acid] | 16 to 32 µg/mL (≈ 30.6 to 61.1 µM) | < 10 µM | 
13 | CCN1CCN(C(=O)NC(C(=O)N[C@H]2Cc3cccc(C(=O)O)c3OB2O)c2ccc(C(=O)O)c(OC)c2)C(=O)C1=O (stereo partly drawn) [Example 48, (3R)-3-(2-(4-carboxy-3-methoxyphenyl)-2-(4-ethyl-2,3-dioxopiperazine-1-carboxamido)acetamido)-2-hydroxy-3,4-dihydro-2H-benzo[e][1,2]oxaborinine-8-carboxylic acid] | 4 to 8 µg/mL (≈ 6.87 to 13.7 µM) |  | 
14 | CCN1CCN(C(=O)NC(C(=O)N[C@H]2Cc3cccc(C(=O)O)c3OB2O)c2cc(O)ccc2O)C(=O)C1=O (stereo partly drawn) [Example 77, (3R)-3-(2-(2,5-dihydroxyphenyl)-2-(4-ethyl-2,3-dioxopiperazine-1-carboxamido)acetamido)-2-hydroxy-3,4-dihydro-2H-benzo[e][1,2]oxaborinine-8-carboxylic acid] | > 64 µg/mL |  | 
15 | CCN1CCN(C(=O)NC(C(=O)N[C@H]2Cc3cccc(C(=O)O)c3OB2O)c2cccc(O)c2)C(=O)C1=O (stereo partly drawn) [Example 68, (3R)-3-(2-(4-ethyl-2,3-dioxopiperazine-1-carboxamido)-2-(3-hydroxyphenyl)acetamido)-2-hydroxy-3,4-dihydro-2H-benzo[e][1,2]oxaborinine-8-carboxylic acid] | > 64 µg/mL | < 10 µM | 
16 | CCN1CCN(C(=O)NC(C(=O)N[C@H]2Cc3cccc(C(=O)O)c3OB2O)c2cccc([N+](=O)[O-])c2)C(=O)C1=O (stereo partly drawn) [Example 75, (3R)-3-(2-(4-ethyl-2,3-dioxopiperazine-1-carboxamido)-2-(3-nitrophenyl)acetamido)-2-hydroxy-3,4-dihydro-2H-benzo[e][1,2]oxaborinine-8-carboxylic acid] | 16 to 32 µg/mL (≈ 28.9 to 57.8 µM) |  | 
17 | CCN1CCN(C(=O)NC(C(=O)N[C@H]2Cc3cccc(C(=O)O)c3OB2O)c2c(F)cc(O)cc2Cl)C(=O)C1=O (stereo partly drawn) [Example 95, (3R)-3-(2-(2-chloro-6-fluoro-4-hydroxyphenyl)-2-(4-ethyl-2,3-dioxopiperazine-1-carboxamido)acetamido)-2-hydroxy-3,4-dihydro-2H-benzo[e][1,2]oxaborinine-8-carboxylic acid] | 16 to 32 µg/mL (≈ 27.7 to 55.5 µM) | < 10 µM | 
18 | CCN1CCN(C(=O)NC(C(=O)N[C@H]2Cc3cccc(C(=O)O)c3OB2O)c2cccc(NS(N)(=O)=O)c2)C(=O)C1=O (stereo partly drawn) [Example 98, (3R)-3-(2-(4-ethyl-2,3-dioxopiperazine-1-carboxamido)-2-(3-(sulfamoylamino)phenyl)acetamido)-2-hydroxy-3,4-dihydro-2H-benzo[e][1,2]oxaborinine-8-carboxylic acid] | 16 to 32 µg/mL (≈ 26.6 to 53.1 µM) |  | 
19 | CCN1CCN(C(=O)NC(C(=O)N[C@H]2Cc3cccc(C(=O)O)c3OB2O)c2ccc(O)cc2OC)C(=O)C1=O (stereo partly drawn) [Example 70, (3R)-3-(2-(4-ethyl-2,3-dioxopiperazine-1-carboxamido)-2-(4-hydroxy-2-methoxyphenyl)acetamido)-2-hydroxy-3,4-dihydro-2H-benzo[e][1,2]oxaborinine-8-carboxylic acid] | > 64 µg/mL |  | 
20 | NCCCN1CCN(C(=O)NC(C(=O)N[C@H]2Cc3cccc(C(=O)O)c3OB2O)c2ccc(C(N)=O)c(O)c2)C(=O)C1=O (stereo partly drawn) [Example 47, (3R)-3-(2-(4-(3-aminopropyl)-2,3-dioxopiperazine-1-carboxamido)-2-(4-carbamoyl-3-hydroxyphenyl)acetamido)-2-hydroxy-3,4-dihydro-2H-benzo[e][1,2]oxaborinine-8-carboxylic acid] | > 64 µg/mL |  | 
